The subject of one experiment is Chochliobolus miyabeanus. Put plainly: Effect on Rice brown spot (preventive spray test). The format is in vivo. To be noted: 7 days after inoculation.
The test system of the next experiment is Phytophthora infestans. The format is in vivo. To be noted: Tomato late blight, 5 days after inoculation.
The test system of the next experiment is Erysiphe graminis. In words: Effects on Barley powdery mildew (preventive spray test). The format is in vivo. The note with it: lesions counted seven days after inoculation.
In experiment [1] the test system is Psecidoperonospora cubensis. Put plainly: Effect on Cucumber downy mildew (preventive spray test). The format is in vivo. The note with it: 7 days after inoculation.
The next experiment relates to Pyricularia oryzae. The format is in vivo. To be noted: Rice blast, 7 days after inoculation.
The next experiment has as its system Rhizoctonia solani. Put plainly: Effect on Rice sheath blight (preventive spray test). The note with it: 10 days after inoculation.
For the next experiment, the system named is Puccinia recondita. Put plainly: Effect on Wheat brown rust (preventive spray test). The format is in vivo. To be noted: 7 days after inoculation.
The subject of a further experiment is Botrytis cinerea. In words: Effect on Cucumber gray mold (cotyledon paper disc test). The format is in vivo. The note with it: 3 days after inoculation.
Another experiment has as its system Puccinia recondite. Put plainly: Penetration and translocation in wheat leaves (covered leaf tip, brown rust). The format is in vivo. The note with it: conc. of active ingredient 100 ppm.
The mark [2] stands for this setting: conc. of active ingredient 4 ppm.
The mark [3] stands for this setting: conc. of active ingredient 20 ppm.
Setting [4] is: conc. of active ingredient 100 ppm.

Molecules are shown by their SMILES. Where two headings read alike, the source gives them in different places.

These results are taken from US6399542B1, “Alkoxyimino-substituted bicyclic compounds compositions containing the same and method of making such compounds” (Agro-Kanesho Co., Ltd., priority 1997, dated 2002).

As to `CNC(=O)/C(=N/OC)c1ccccc1COc1ccc2c(c1C)OC(C)C2=NOC` (stereo not drawn) [b-7], the “Preventive rate (%)” value in the experiment on Chochliobolus miyabeanus (setting [2]) is 56%; in the experiment on Chochliobolus miyabeanus (setting [3]), 95%; in the experiment on Chochliobolus miyabeanus (setting [4]) it was 96%; with Phytophthora infestans (setting [3]), 95%; in the experiment on Phytophthora infestans (setting [4]), 100%; in the experiment on Erysiphe graminis (setting [2]), 99%. Also, the “Preventive rate (%)” value with Erysiphe graminis (setting [3]) was found to be 100%; in the experiment with Erysiphe graminis (setting [4]) it was 100%; in experiment [1] (setting [2]), 89%; in [1] (setting [3]) it was 93%; in experiment [1] (setting [4]), 96%; in the experiment with Pyricularia oryzae (setting [3]), 89%. Further, the “Preventive rate (%)” value with Pyricularia oryzae (setting [4]) is recorded as 100%; with Rhizoctonia solani (setting [3]), 86%; with Rhizoctonia solani (setting [4]) it was 98%; with Puccinia recondita (setting [2]) it was 99%; in the experiment on Puccinia recondita (setting [3]), 100%; in the experiment with Puccinia recondita (setting [4]), 100%.

Regarding `CNC(=O)C(=NOC)c1ccccc1COc1cc(C)c2c(c1C)CCC2=NOC` [e-23], the “Preventive rate (%)” value turned out to be 98% in the experiment with Chochliobolus miyabeanus (setting [3]); 98% with Chochliobolus miyabeanus (setting [4]); 100% with Phytophthora infestans (setting [3]); 100% in the experiment on Phytophthora infestans (setting [4]); 86% in the experiment with Botrytis cinerea (setting [3]); 96% in the experiment on Botrytis cinerea (setting [4]). Besides, the “Preventive rate (%)” value in the experiment on Erysiphe graminis (setting [2]) is listed as 100%; in the experiment on Erysiphe graminis (setting [3]), 100%; in the experiment on Erysiphe graminis (setting [4]), 100%; in experiment [1] (setting [3]), 96%; in experiment [1] (setting [4]) it was 100%; with Rhizoctonia solani (setting [3]), 64%. Moreover, the “Preventive rate (%)” value with Rhizoctonia solani (setting [4]) is given as 69%; with Puccinia recondita (setting [3]), 100%; with Puccinia recondita (setting [4]), 100%.

Regarding `CNC(=O)C(=NOC)c1ccccc1COc1cc2c(cc1C)C(=NOC)CCO2` [c-27], the “Preventive rate (%)” value was found to be 98% with Phytophthora infestans (setting [3]); 100% with Phytophthora infestans (setting [4]); 100% with Erysiphe graminis (setting [2]); 100% with Erysiphe graminis (setting [3]); 100% with Erysiphe graminis (setting [4]); 86% in [1] (setting [2]). Further, the “Preventive rate (%)” value in experiment [1] (setting [3]) was found to be 93%; in [1] (setting [4]), 96%; with Pyricularia oryzae (setting [3]), 95%; with Pyricularia oryzae (setting [4]), 100%; in the experiment on Rhizoctonia solani (setting [3]) it was 93%; in the experiment with Rhizoctonia solani (setting [4]), 94%. In addition, the “Preventive rate (%)” value is given as 96% in the experiment on Puccinia recondita (setting [2]), 100% in the experiment with Puccinia recondita (setting [3]) and 100% in the experiment with Puccinia recondita (setting [4]).

Take `C#CCON=C1COc2c1ccc(OCc1ccccc1/C(=N\OC)C(=O)OC)c2C` [a-70]: the “Preventive rate (%)” value came out at 95% in the experiment with Phytophthora infestans (setting [3]); 95% in the experiment with Phytophthora infestans (setting [4]); 53% in the experiment with Botrytis cinerea (setting [3]); 85% in the experiment on Botrytis cinerea (setting [4]); 100% in the experiment on Erysiphe graminis (setting [3]); 100% with Erysiphe graminis (setting [4]). Besides, the “Preventive rate (%)” value in experiment [1] (setting [3]) is recorded as 88%; in experiment [1] (setting [4]), 91%; in the experiment with Rhizoctonia solani (setting [3]), 80%; in the experiment on Rhizoctonia solani (setting [4]), 90%; with Puccinia recondita (setting [2]), 99%; with Puccinia recondita (setting [3]), 100%. The “Preventive rate (%)” value in the experiment on Puccinia recondita (setting [4]) turned out to be 100%.

As for `COC=C(C(=O)OC)c1ccccc1COc1ccc2c(c1C)OCC2=NOC` [a-13], the “Preventive rate (%)” value with Chochliobolus miyabeanus (setting [3]) is 88%; in the experiment with Chochliobolus miyabeanus (setting [4]), 96%; in the experiment on Phytophthora infestans (setting [3]) it was 100%; with Phytophthora infestans (setting [4]) it was 100%; in the experiment on Botrytis cinerea (setting [3]), 96%; in the experiment with Botrytis cinerea (setting [4]), 100%. In addition, the “Preventive rate (%)” value in the experiment with Erysiphe graminis (setting [2]) is 100%; in the experiment on Erysiphe graminis (setting [3]), 100%; with Erysiphe graminis (setting [4]), 100%; in [1] (setting [3]), 96%; in [1] (setting [4]), 100%; with Rhizoctonia solani (setting [3]) it was 97%. For the same compound, the “Preventive rate (%)” value in the experiment on Rhizoctonia solani (setting [4]) came out at 97%.

As for `C=CCON=C1COc2c1ccc(OCc1ccccc1/C(=N\OC)C(=O)OC)c2C` [a-59], the “Preventive rate (%)” value with Botrytis cinerea (setting [3]) was determined as 73%; in the experiment with Botrytis cinerea (setting [4]), 76%; in the experiment with Erysiphe graminis (setting [3]), 92%; in the experiment on Erysiphe graminis (setting [4]), 100%; with Rhizoctonia solani (setting [3]) it was 60%; with Rhizoctonia solani (setting [4]) it was 72%. The “Preventive rate (%)” value in the experiment on Puccinia recondita (setting [2]) was 90%; in the experiment on Puccinia recondita (setting [3]), 98%; in the experiment on Puccinia recondita (setting [4]), 100%.

As for `CNC(=O)/C(=N/OC)c1ccccc1COc1ccc2c(c1C)OCC2=NOC/C=C/Cl` [a-62], the “Preventive rate (%)” value was 83% in the experiment with Chochliobolus miyabeanus (setting [3]); 88% with Chochliobolus miyabeanus (setting [4]); 97% in the experiment with Phytophthora infestans (setting [3]); 98% with Phytophthora infestans (setting [4]); 96% in the experiment with Botrytis cinerea (setting [3]); 100% in the experiment with Botrytis cinerea (setting [4]). In addition, the “Preventive rate (%)” value with Erysiphe graminis (setting [2]) is 98%; in the experiment with Erysiphe graminis (setting [3]) it was 100%; in the experiment on Erysiphe graminis (setting [4]), 100%; in experiment [1] (setting [2]) it was 94%; in experiment [1] (setting [3]), 100%; in experiment [1] (setting [4]) it was 100%. The “Preventive rate (%)” value in the experiment with Rhizoctonia solani (setting [3]) came to 91%; with Rhizoctonia solani (setting [4]), 98%; in the experiment with Puccinia recondita (setting [2]), 100%; in the experiment with Puccinia recondita (setting [3]) it was 100%; in the experiment on Puccinia recondita (setting [4]) it was 100%.

`CO/N=C(/C(=O)OC)c1ccccc1COc1ccc2c(c1C)OCC2=NOC/C=C/Cl` [a-61]: the “Preventive rate (%)” value turned out to be 49% in the experiment with Chochliobolus miyabeanus (setting [2]); 72% in the experiment on Chochliobolus miyabeanus (setting [3]); 91% in the experiment on Chochliobolus miyabeanus (setting [4]); 89% with Phytophthora infestans (setting [3]); 91% in the experiment on Phytophthora infestans (setting [4]); 91% in the experiment on Botrytis cinerea (setting [3]). Also, the “Preventive rate (%)” value in the experiment with Botrytis cinerea (setting [4]) came out at 85%; in the experiment on Erysiphe graminis (setting [2]), 99%; in the experiment on Erysiphe graminis (setting [3]), 100%; in the experiment on Erysiphe graminis (setting [4]), 100%; in the experiment with Rhizoctonia solani (setting [3]), 60%; with Rhizoctonia solani (setting [4]), 96%. Also, the “Preventive rate (%)” value in the experiment with Puccinia recondita (setting [2]) is listed as 91%; in the experiment with Puccinia recondita (setting [3]), 100%; with Puccinia recondita (setting [4]) it was 100%.

`CON=C(C(=O)OC)c1ccccc1COc1ccc2c(c1C)OC(C)CC2=NOC` (racemic) [d-10]: in the experiment with Puccinia recondite, the “Number of lesions formed within the mark to the tip” value stood at 0, the “Preventive rate (%)” value was 100% and the “Rate of the translocation perfect preventive conc. (%)” value is listed as 100%.

Regarding `CON=C(C(=O)OC)c1ccccc1COc1ccc2c(c1)OCCC2=NOC` [c-4], the “Preventive rate (%)” value with Chochliobolus miyabeanus (setting [3]) came to 80%; in the experiment on Chochliobolus miyabeanus (setting [4]), 80%; in the experiment with Phytophthora infestans (setting [3]) it was 97%; in the experiment with Phytophthora infestans (setting [4]), 97%; in experiment [1] (setting [3]), 94%; in [1] (setting [4]), 100%. Further, the “Preventive rate (%)” value in the experiment on Pyricularia oryzae (setting [3]) was found to be 86%; in the experiment with Pyricularia oryzae (setting [4]), 90%; in the experiment on Rhizoctonia solani (setting [3]), 53%; with Rhizoctonia solani (setting [4]), 98%; in the experiment with Puccinia recondita (setting [4]), 100%.
